# Like-named read-outs stand apart in the source and are kept apart here.
# Experiments:
# [1] = biological target: human TYK2 (JH2domain-pseudokinase) (Homo sapiens (Human), UniProt P29597); test: TYK2 JH2 Domain Binding Assay (KINOMEscan)
# Procedure, shortened: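 Competition binding of a DNA-tagged fusion of human TYK2 JH2 pseudokinase (G556–D888) with NFkB DNA-binding domain, from HEK293 extracts (<0.1 nM final), against immobilised ligand beads; 1 h shaking at room temperature, 0.9% DMSO. Bound kinase quantified by qPCR.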
# JAK2 kinase domain (JH1) = JAK2 kinase domain (JH1) (Homo sapiens (Human), UniProt O60674); test: JAK2 Radioactive Kinase Assay; type: biochemical; conditions: for inhibition at 10 µM: read-out: JAK2 JH1% Inhibition @ 10 μM
# Sequence of JAK2 kinase domain (JH1) (O60674 849-1124): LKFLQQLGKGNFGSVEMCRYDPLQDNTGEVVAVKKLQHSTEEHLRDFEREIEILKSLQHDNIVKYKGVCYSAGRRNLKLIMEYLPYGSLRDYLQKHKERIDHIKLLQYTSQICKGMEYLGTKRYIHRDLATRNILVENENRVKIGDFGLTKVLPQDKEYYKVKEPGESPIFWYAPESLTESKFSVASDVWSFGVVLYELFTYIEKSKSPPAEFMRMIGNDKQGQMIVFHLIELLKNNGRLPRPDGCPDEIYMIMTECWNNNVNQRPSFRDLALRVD
# Procedure, shortened: (§1)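 Single-point screen: 10 μM test compound, radioactive kinase read-out, percent inhibition reported for each kinase domain.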
# Tyk2 kinase domain (DH1) = Tyk2 kinase domain (DH1) (Homo sapiens (Human), UniProt P29597); test: Tyk2 Radioactive Kinase Assay; type: biochemical; conditions: for inhibition at 10 µM: read-out: Tyk2 JH1% Inhibition @ 10 μM
# Sequence of Tyk2 kinase domain (DH1) (P29597 897-1176): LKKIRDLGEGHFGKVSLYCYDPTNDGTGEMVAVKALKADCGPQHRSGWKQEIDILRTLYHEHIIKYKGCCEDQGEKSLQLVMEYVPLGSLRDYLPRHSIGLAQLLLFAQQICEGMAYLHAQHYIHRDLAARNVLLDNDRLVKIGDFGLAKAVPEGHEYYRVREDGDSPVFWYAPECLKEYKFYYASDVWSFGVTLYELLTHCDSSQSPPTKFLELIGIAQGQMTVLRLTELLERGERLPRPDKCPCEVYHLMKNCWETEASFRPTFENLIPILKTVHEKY
# Procedure, shortened: as §1
# Sequence of human TYK2 (JH2domain-pseudokinase) (P29597 556-888): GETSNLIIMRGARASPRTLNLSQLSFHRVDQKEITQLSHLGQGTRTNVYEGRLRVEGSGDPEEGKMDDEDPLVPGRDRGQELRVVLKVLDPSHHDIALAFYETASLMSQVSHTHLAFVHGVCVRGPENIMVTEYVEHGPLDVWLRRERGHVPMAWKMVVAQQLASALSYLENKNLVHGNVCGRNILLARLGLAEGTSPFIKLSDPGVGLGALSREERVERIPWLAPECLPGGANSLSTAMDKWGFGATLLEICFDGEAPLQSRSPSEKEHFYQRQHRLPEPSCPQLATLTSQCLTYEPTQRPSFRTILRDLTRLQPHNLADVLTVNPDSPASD
Kd [1] [nM],"inhibition at 10 µM (JAK2 kinase domain (JH1); compound at 10 μM, ATP 10 μM) [%]","inhibition at 10 µM (Tyk2 kinase domain (DH1); compound at 10 μM, ATP 10 μM) [%]","inhibition at 10 µM (JAK2 kinase domain (JH1); 10 μM compound, 10 μM ATP) [%]","inhibition at 10 µM (Tyk2 kinase domain (DH1); 10 μM compound, 10 μM ATP) [%]",Structure (SMILES),"JAK2 JH1% Inhibition @ 10 μM (JAK2 kinase domain (JH1); 10 μM compound, 10 μM ATP)","Tyk2 JH1% Inhibition @ 10 μM (Tyk2 kinase domain (DH1); 10 μM compound, 10 μM ATP)"
> 10,< 50,< 50,–,–,CNc1cc(Nc2cccn([C@H]3CCCOC3)c2=O)nc2c(C(=O)N[C@H]3[C@@H]4COC[C@@H]43)cnn12 [I-651],–,–
0.2 to 1,< 50,< 50,–,–,CNc1cc(Nc2cccnc2C(C)(F)F)nc2c(C(=O)NCC(C)(C)CO)cnn12 [I-355],–,–
< 0.2,< 50,< 50,–,–,CNc1cc(Nc2cccc(N3CCOCC3)n2)nc2c(C(=O)NC3CC3)cnn12 [I-589],–,–
0.2 to 1,< 50,< 50,–,–,CNc1cc(Nc2cccn([C@@H]3CCOC3)c2=O)nc2c(C(=O)NC3CCC3)cnn12 [I-204],–,–
0.2 to 1,< 50,< 50,–,–,CNc1cc(Nc2cc(F)cnc2OCCOC)nc2c(C(=O)NC3CC3)cnn12 [I-286],–,–
0.2 to 1,< 50,< 50,–,–,CNc1cc(Nc2cccnc2OC2CCOCC2)nc2c(C(=O)NC3CC3)cnn12 [I-173],–,–
< 0.2,50 to 70,< 50,–,–,"CNc1cc(Nc2cccnc2OC2CC2)nc2c(C(=O)N[C@H]3C[C@H](O)C3)cnn12 [I-320, 5-((2-cyclopropoxypyridin-3-yl)amino)-N-((1r, 3r)-3-hydroxycyclobutyl)-7-(methylamino)pyrazolo[1,5-a]pyrimidine-3-carboxamide]",–,–
0.2 to 1,< 50,< 50,–,–,"[2H]C([2H])([2H])Oc1ncc(C)cc1Nc1cc(NC)n2ncc(C(=O)NC3CCC3)c2n1 [I-260, N-cyclobutyl-5-((2-(methoxy-d3)-5-methylpyridin-3-yl)amino)-7-(methylamino)pyrazolo[1,5-a]pyrimidine-3-carboxamide]",–,–
< 0.2,< 50,< 50,–,–,CNc1cc(Nc2cccc([C@@H]3CCCCO3)n2)nc2c(C(=O)N[C@@H]3CC[C@@H]3O)cnn12 [I-610],–,–
> 10,–,–,–,–,CNc1cc(Nc2cccn([C@@H]3CCCC[C@@H]3OC)c2=O)nc2c(C(=O)N[C@H]3CC[C@@H]3OC)cnn12 [I-1127],A (percent inhibition at 10 μM lower than 50),A (percent inhibition at 10 μM lower than 50)
< 0.2,< 50,< 50,–,–,"CNc1cc(Nc2cccn(-c3cccc(C)n3)c2=O)nc2c(C(=O)NC3CCC3)cnn12 [I-130, N-cyclobutyl-5-((6′-methyl-2-oxo-2H-[1,2′-bipyridin]-3-yl)amino)-7-(methylamino)pyrazolo[1,5-a]pyrimidine-3-carboxamide]",–,–
< 0.2,< 50,< 50,–,–,CNc1cc(Nc2cc(C)cn(-c3ccn(C)n3)c2=O)nc2c(C(=O)NC3CCC3)cnn12 [I-251],–,–
0.2 to 1,< 50,< 50,–,–,CNc1cc(Nc2cccn([C@@H]3CCOC3)c2=O)nc2c(C(=O)NC3CC3)cnn12 [I-202],–,–
1 to 10,< 50,< 50,–,–,NC(=O)c1cnn2c(N)cc(Nc3cccn([C@H]4CC[C@@H](N5CCOCC5)CC4)c3=O)nc12 [I-76],–,–
1 to 10,–,–,< 50,< 50,"CNc1cc(Nc2cccnc2OC)nc2c(C(=O)N[C@H]3CC[C@@]3(C)O)cnn12 [I-1015, N-((1S,2R)-2-hydroxy-2-methylcyclobutyl)-5-((2-methoxypyridin-3-yl)amino)-7-(methylamino)pyrazolo[1,5-a]pyrimidine-3-carboxamide]",–,–
0.2 to 1,< 50,< 50,–,–,CNc1cc(Nc2cccnc2OC2CCCCC2)nc2c(C(=O)N[C@H]3C[C@H]3F)cnn12 [I-227],–,–
1 to 10,< 50,< 50,–,–,"CNc1cc(Nc2cccnc2OC2CC2)nc2c(C(=O)NCCC3(O)CC3)cnn12 [I-469, 5-((2-cyclopropoxypyridin-3-yl)amino)-N-(2-(1-hydroxycyclopropyl)ethyl)-7-(methylamino)pyrazolo[1,5-a]pyrimidine-3-carboxamide]",–,–
< 0.2,< 50,< 50,–,–,CNc1cc(Nc2cccn(-c3ccc(C)nc3)c2=O)nc2c(C(=O)NCC(C)(C)CO)cnn12 [I-767],–,–
0.2 to 1,< 50,< 50,–,–,"CNc1cc(Nc2cccn([C@H]3CC[C@](C)(OC)CC3)c2=O)nc2c(C(=O)N[C@H]3CC[C@H]3O)cnn12 [I-723, N-((1R,2S)-2-hydroxycyclobutyl)-5-((1-((1R,4R)-4-methoxy-4-methylcyclohexyl)-2-oxo-1,2-dihydropyridin-3-yl)amino)-7-(methylamino)pyrazolo[1,5-a]pyrimidine-3-carboxamide]",–,–

Kd [1] [nM],"inhibition at 10 µM (JAK2 kinase domain (JH1); compound at 10 μM, ATP 10 μM) [%]","inhibition at 10 µM (Tyk2 kinase domain (DH1); compound at 10 μM, ATP 10 μM) [%]","inhibition at 10 µM (JAK2 kinase domain (JH1); 10 μM compound, 10 μM ATP) [%]","inhibition at 10 µM (Tyk2 kinase domain (DH1); 10 μM compound, 10 μM ATP) [%]",Structure (SMILES),"JAK2 JH1% Inhibition @ 10 μM (JAK2 kinase domain (JH1); 10 μM compound, 10 μM ATP)","Tyk2 JH1% Inhibition @ 10 μM (Tyk2 kinase domain (DH1); 10 μM compound, 10 μM ATP)"
< 0.2,< 50,< 50,–,–,CNc1cc(Nc2cc(Cl)cn(-c3cnn(C4CC4)c3C)c2=O)nc2c(C(N)=O)cnn12 [I-180],–,–
< 0.2,< 50,< 50,–,–,CNc1cc(-c2cn(CCN3CCN(C)CC3)c3ncccc23)nc2c(C(=O)NC3CC3)cnn12 [I-616],–,–
0.2 to 1,–,–,< 50,< 50,CNc1cc(Nc2cccn(C3CC4(COC4)C3)c2=O)nc2c(C(=O)N[C@@H]3CC[C@@H]3O)cnn12 [I-871],–,–
0.2 to 1,–,–,< 50,< 50,"CNc1cc(-c2cn(CCN3CCOCC3)c3ncccc23)nc2c(C(=O)NCC(C)(C)CO)cnn12 [I-818, N-(3-hydroxy-2,2-dimethylpropyl)-7-(methylamino)-5-(1-(2-morpholinoethyl)-1H-pyrrolo[2,3-b]pyridin-3-yl)pyrazolo[1,5-a]pyrimidine-3-carboxamide]",–,–
0.2 to 1,–,–,< 50,< 50,CNc1cc(Nc2cccn(-c3ccccc3F)c2=O)nc2c(C(=O)NC[C@H](C)CO)cnn12 [I-1077],–,–
< 0.2,–,–,< 50,< 50,CNc1cc(Nc2cccn([C@H]3CCC[C@@H](OC)C3)c2=O)nc2c(C(=O)N[C@H]3CC[C@@H]3O)cnn12 [I-1124],–,–
0.2 to 1,< 50,< 50,–,–,CNc1cc(Nc2cccc(N3CC4(CCO4)C3)n2)nc2c(C(=O)N[C@H]3CC[C@H]3O)cnn12 [I-758],–,–
0.2 to 1,< 50,< 50,–,–,"CNc1cc(Nc2cccn(CCOC3CC3)c2=O)nc2c(C(=O)NCC3(CO)CC3)cnn12 [I-577, 5-((1-(2-cyclopropoxyethyl)-2-oxo-1,2-dihydropyridin-3-yl)amino)-N-((1-(hydroxymethyl)cyclopropyl)methyl)-7-(methylamino)pyrazolo[1,5-a]pyrimidine-3-carboxamide]",–,–
< 0.2,–,–,< 50,< 50,CNc1cc(Nc2cccn([C@H]3CC[C@@]4(CCCO4)CC3)c2=O)nc2c(C(=O)NC3CC3)cnn12 [I-910],–,–
< 0.2,–,–,< 50,< 50,CNc1cc(Nc2cccn(C3CCOCC3)c2=O)nc2c(C(=O)NC[C@H](C)CO)cnn12 [I-1031],–,–
0.2 to 1,< 50,< 50,–,–,CNc1cc(Nc2cccnc2OC(F)(F)F)nc2c(C(=O)NC3CC3)cnn12 [I-90],–,–
< 0.2,< 50,< 50,–,–,CNc1cc(-c2cn(CCN3CCOCC3)c3ncccc23)nc2c(C(=O)NC3CC3)cnn12 [I-582],–,–
< 0.2,< 50,< 50,–,–,CNc1cc(Nc2cccn(-c3ccc(C(=O)N4CCCC4)cn3)c2=O)nc2c(C(=O)NC3CC3)cnn12 [I-129],–,–
< 0.2,< 50,< 50,–,–,CNc1cc(Nc2cccn(-c3nc(C)co3)c2=O)nc2c(C(=O)NC[C@H](C)CO)cnn12 [I-736],–,–
< 0.2,< 50,< 50,–,–,CNc1cc(-c2cn(CCN3CCOCC3)c3ncccc23)nc2c(C(=O)N[C@H]3C[C@H]3F)cnn12 [I-583],–,–
< 0.2,< 50,< 50,–,–,CNc1cc(Nc2cccn(C3CC4(COC4)C3)c2=O)nc2c(C(=O)N[C@H]3CC[C@H]3O)cnn12 [I-763],–,–
0.2 to 1,< 50,< 50,–,–,CNc1cc(Nc2cccn(C[C@H]3CCCCO3)c2=O)nc2c(C(=O)NC3CC3)cnn12 [I-412],–,–
1 to 10,–,–,< 50,< 50,CNc1cc(Nc2cccn([C@@H]3CCCC[C@@H]3OC)c2=O)nc2c(C(=O)NCC(C)(C)CO)cnn12 [I-990],–,–
1 to 10,–,–,< 50,< 50,CNc1cc(Nc2cccn([C@H]3CC[C@H](OC)CC3)c2=O)nc2c(C(=O)N[C@H]3COC[C@H]3O)cnn12 [I-832],–,–

Structure (SMILES),Kd [1] [nM],"inhibition at 10 µM (JAK2 kinase domain (JH1); compound at 10 μM, ATP 10 μM) [%]","inhibition at 10 µM (Tyk2 kinase domain (DH1); compound at 10 μM, ATP 10 μM) [%]","inhibition at 10 µM (JAK2 kinase domain (JH1); 10 μM compound, 10 μM ATP) [%]","inhibition at 10 µM (Tyk2 kinase domain (DH1); 10 μM compound, 10 μM ATP) [%]","JAK2 JH1% Inhibition @ 10 μM (JAK2 kinase domain (JH1); 10 μM compound, 10 μM ATP)","Tyk2 JH1% Inhibition @ 10 μM (Tyk2 kinase domain (DH1); 10 μM compound, 10 μM ATP)"
CNc1cc(Nc2cccn([C@@H]3CC[C@H]3OC)c2=O)nc2c(C(=O)NC3CC3)cnn12 [I-1020],0.2 to 1,–,–,< 50,< 50,–,–

# Reference: US10508120B2, “TYK2 inhibitors and uses thereof” (Nimbus Lakshmi, Inc., priority 2017, dated 2019)
